In patent US20250313548A1 (Actio Biosciences, Inc., priority 2023, published 2025):
pIC50: −log10 of the molar value.

Target: human, KCNT1 (Homo sapiens (Human), UniProt Q5JUK3)
Assay: FLIPR Tl/K Flux Assay
Format: cell-based
Settings: HEK293 cells stably expressing human KCNT1; Tl+ flux stimulated with EC80 of agonist Loxapine
Summary of the method: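 Inhibition values come from a Hill-equation fit of % inhibition versus log concentration, using normalized fluorescence (Fmax/Fmin) over a 160 s read. The read followed stimulation with Tl+ plus EC80 agonist loxapine after 30 min compound pre-incubation at 25 °C. Cells were KCNT1-expressing HEK293, dye-loaded 1 h in pH 7.4 HEPES/HBSS with 5 mM probenecid.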

human, KCNT1, sequence (Q5JUK3 whole entry): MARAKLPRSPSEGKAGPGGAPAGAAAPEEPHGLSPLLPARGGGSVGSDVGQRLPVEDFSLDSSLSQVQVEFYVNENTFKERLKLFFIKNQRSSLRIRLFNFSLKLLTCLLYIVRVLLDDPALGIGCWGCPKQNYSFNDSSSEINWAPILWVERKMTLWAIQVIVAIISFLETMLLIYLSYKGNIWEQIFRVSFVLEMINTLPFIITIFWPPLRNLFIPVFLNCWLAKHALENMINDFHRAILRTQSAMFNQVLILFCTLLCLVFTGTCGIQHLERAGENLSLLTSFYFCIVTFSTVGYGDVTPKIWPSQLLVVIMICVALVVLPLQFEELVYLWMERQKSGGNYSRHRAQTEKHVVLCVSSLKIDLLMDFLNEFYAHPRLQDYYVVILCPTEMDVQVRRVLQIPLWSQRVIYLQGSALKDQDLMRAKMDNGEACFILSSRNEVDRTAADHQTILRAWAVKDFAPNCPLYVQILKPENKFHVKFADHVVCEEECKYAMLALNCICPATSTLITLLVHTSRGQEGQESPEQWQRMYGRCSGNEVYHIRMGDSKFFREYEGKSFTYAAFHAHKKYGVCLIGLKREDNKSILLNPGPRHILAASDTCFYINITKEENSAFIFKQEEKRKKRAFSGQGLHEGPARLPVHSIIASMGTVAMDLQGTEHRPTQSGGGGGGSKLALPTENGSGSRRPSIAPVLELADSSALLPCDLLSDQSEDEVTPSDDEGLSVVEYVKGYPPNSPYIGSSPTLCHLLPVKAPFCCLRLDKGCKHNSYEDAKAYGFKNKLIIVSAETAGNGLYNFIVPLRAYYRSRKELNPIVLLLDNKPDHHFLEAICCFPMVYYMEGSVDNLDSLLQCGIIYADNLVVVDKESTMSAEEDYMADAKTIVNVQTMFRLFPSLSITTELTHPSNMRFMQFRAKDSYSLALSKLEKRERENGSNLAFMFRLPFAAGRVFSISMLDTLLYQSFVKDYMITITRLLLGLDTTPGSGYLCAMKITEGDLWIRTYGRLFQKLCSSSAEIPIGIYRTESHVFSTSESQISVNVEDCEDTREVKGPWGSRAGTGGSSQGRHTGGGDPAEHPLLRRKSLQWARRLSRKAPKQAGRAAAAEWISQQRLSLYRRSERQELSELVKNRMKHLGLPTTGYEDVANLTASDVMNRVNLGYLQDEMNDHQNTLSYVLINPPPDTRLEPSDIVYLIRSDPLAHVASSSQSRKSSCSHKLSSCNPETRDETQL

Structure (SMILES)	pIC50
COc1cc(-n2cc3c(n2)CC[C@@H]3NC(=O)c2cc(C(F)(F)F)nn2C)cc(C)n1 [Compound I-336a, (S)-N-(2-(2-Methoxy-6-methylpyridin-4-yl)-2,4,5,6-tetrahydrocyclopenta[c]pyrazol-4-yl)-1-methyl-3-(trifluoromethyl)-1H-pyrazole-5-carboxamide]	6.00 to 6.30
O=C(N[C@H]1CCc2cnc(-c3ccnc(C(F)(F)F)c3)cc21)c1cc2cccnn2c1 [Compound I-340a]	< 6.00
COc1cc(-c2cc3n(n2)CCC[C@@H]3NC(=O)c2cc(C(F)(F)F)nn2C)cc(OC)n1 [Compound I-344a]	< 6.00
Cc1c(-c2ccnc(C(F)(F)F)c2)nn2c1[C@H](NC(=O)c1cc(C(F)(F)F)nn1C)CCC2 [Compound I-353b]	6.00 to 6.30
COc1cc(-c2cc3n(n2)CCC[C@@H]3NC(=O)c2cccc(C(F)(F)F)c2)ccn1 [Compound I-355a]	> 6.60
COc1cc(-c2cc3n(n2)CCC[C@@H]3NC(=O)c2cccc(C(F)(F)F)n2)ccn1 [Compound I-356a]	6.30 to 6.60
CCOc1cc(-n2cc3c(n2)CCCC[C@H]3NC(=O)c2cc(C(F)(F)F)nn2C)ccn1 [Compound I-360b]	< 6.00
CCOc1cc(-n2cc3c(n2)CCCC[C@H]3NC(=O)c2cccc(C)c2)ccn1 [Compound I-361b]	< 6.00
COc1cc(-c2cc3n(n2)CCC[C@@H]3NC(=O)c2cc(C(F)(F)F)ccn2)ccn1 [Compound I-365a]	6.30 to 6.60
O=C(N[C@H]1CCCn2nc(-c3ccnc(C(F)(F)F)c3)cc21)c1cc2n(n1)CCC2 [Compound I-368a]	< 6.00
Cn1nc(C2CC2)cc1C(=O)N[C@H]1CCCCc2nn(-c3ccnc(C(F)(F)F)c3)cc21 [Compound I-369a]	> 6.60
Cn1nc(C2CC2)cc1C(=O)N[C@@H]1CCCCc2nn(-c3ccnc(C(F)(F)F)c3)cc21 [Compound I-369b]	< 6.00
Cn1nc(OC2CC2)cc1C(=O)N[C@H]1CCCn2nc(-c3ccnc(C(F)(F)F)c3)cc21 [Compound I-370a]	> 6.60
O=C(N[C@H]1CCCn2nc(-c3ccnc(C(F)(F)F)c3)cc21)c1cc(C(F)(F)F)nn1C1CC1 [Compound I-371a]	> 6.60
Cc1cc(C)cc(C(=O)N[C@H]2CCc3nn(-c4ccnc(C(F)(F)F)c4)cc32)c1 [Compound I-372a]	> 6.60
Cc1cc(C)cc(C(=O)N[C@@H]2CCc3nn(-c4ccnc(C(F)(F)F)c4)cc32)c1 [Compound I-372b]	6.00 to 6.30
Cc1cc(C(=O)N[C@H]2CCc3nn(-c4ccnc(C(F)(F)F)c4)cc32)cc(C(F)(F)F)c1 [Compound I-373a]	> 6.60

Structure (SMILES)	pIC50
Cc1cc(C(=O)N[C@@H]2CCc3nn(-c4ccnc(C(F)(F)F)c4)cc32)cc(C(F)(F)F)c1 [Compound I-373b]	> 6.60
Cn1nc(C(F)(F)F)cc1C(=O)N[C@H]1CCCc2nn(-c3ccnc(C#N)c3)cc21 [Compound I-375a]	< 6.00
COc1cc(-n2cc3c(n2)CCCC[C@@H]3NC(=O)c2cccc(C)c2)ccn1 [Compound I-376a]	> 6.60
COc1cc(-n2cc3c(n2)CCCC[C@H]3NC(=O)c2cccc(C)c2)ccn1 [Compound I-376b]	< 6.00
Cn1nc(C(F)(F)F)cc1C(=O)N[C@H]1CCCn2nc(-c3ccnc(C4CCC4)c3)cc21 [Compound I-377a]	> 6.60
Cn1nc(C(F)(F)F)cc1C(=O)N[C@H]1CCCn2nc(-c3ccnc(OC(F)F)c3)cc21 [Compound I-378a]	> 6.60
Cn1nc(C(F)(F)F)cc1C(=O)N[C@H]1CCCn2nc(-c3ccnc(C(C)(F)F)c3)cc21 [Compound I-379a]	> 6.60
CC(C)n1nc(C(F)(F)F)cc1C(=O)N[C@H]1CCCn2nc(-c3ccnc(C(F)(F)F)c3)cc21 [Compound I-381a]	> 6.60
O=C(N[C@H]1CCCn2nc(-c3ccnc(C(F)(F)F)c3)cc21)c1ccn(C(F)(F)F)n1 [Compound I-382a]	> 6.60
Cn1nc(C(F)(F)F)cc1C(=O)N[C@H]1CCCc2ncc(-c3ccnc(C(F)(F)F)c3)cc21 [Compound I-383a]	< 6.00
Cn1nc(C(F)(F)F)cc1C(=O)N[C@@H]1CCCc2ncc(-c3ccnc(C(F)(F)F)c3)cc21 [Compound I-383b]	< 6.00
Cc1cc(F)cc(C(=O)N[C@@H]2CCc3nn(-c4ccnc(C(F)(F)F)c4)cc32)c1 [Compound I-384b]	> 6.60
Cn1nc(C(F)(F)F)cc1C(=O)N[C@H]1CCCCn2nc(-c3ccnc(C(F)(F)F)c3)cc21 [Compound I-385a]	> 6.60
Cn1nc(C(F)(F)F)cc1C(=O)N[C@@H]1CCCCn2nc(-c3ccnc(C(F)(F)F)c3)cc21 [Compound I-385b]	6.30 to 6.60
Cc1c(C(F)(F)F)nn(C)c1C(=O)N[C@H]1CCc2nn(-c3ccnc(C(F)(F)F)c3)cc21 [Compound I-386a]	< 6.00
O=C(N[C@H]1CCCCn2nc(-c3ccnc(C(F)(F)F)c3)cc21)c1cc(Cl)cc(C(F)(F)F)c1 [Compound I-387a]	> 6.60
Cn1nc(C2CC2)cc1C(=O)N[C@H]1CCCCn2nc(-c3ccnc(C(F)(F)F)c3)cc21 [Compound I-388a]	> 6.60

Second part, the molecule after the results:

pIC50	Structure (SMILES)
> 6.60	N#Cc1cc(C(=O)N[C@H]2CCCn3nc(-c4ccnc(C(F)(F)F)c4)cc32)cc(C2CC2)c1 [Compound I-333a, (S)-3-Cyano-5-cyclopropyl-N-(2-(2-(trifluoromethyl)pyridin-4-yl)-4,5,6,7-tetrahydropyrazolo[1,5-a]pyridin-4-yl)benzamide]
> 6.60	Cc1cc(C#N)cc(C(=O)N[C@H]2CCn3nc(-c4ccnc(C(F)(F)F)c4)cc32)c1 [Compound I-334a, (S)-3-Cyano-5-methyl-N-(2-(2-(trifluoromethyl)pyridin-4-yl)-5,6-dihydro-4H-pyrrolo[1,2-b]pyrazol-4-yl)benzamide]
> 6.60	N#Cc1cccc(C(=O)N[C@H]2CCCCc3nn(-c4ccnc(C5CC5)c4)cc32)c1 [Compound I-335a, (S)-3-Cyano-N-(2-(2-cyclopropylpyridin-4-yl)-2,4,5,6,7,8-hexahydrocyclohepta[c]pyrazol-4-yl)benzamide]
> 6.60	CCOc1cc(-n2cc3c(n2)CC[C@@H]3NC(=O)c2cc(F)cc(F)c2)ccn1 [Compound I-337a, (S)-N-(2-(2-Ethoxypyridin-4-yl)-2,4,5,6-tetrahydrocyclopenta[c]pyrazol-4-yl)-3,5-difluorobenzamide]
> 6.60	O=C(N[C@H]1CCCn2nc(-c3ccnc(C(F)(F)F)c3)cc21)c1cn(C(F)(F)F)nc1C(F)(F)F [Compound I-338a, (S)-1,3-bis(trifluoromethyl)-N-(2-(2-(trifluoromethyl)pyridin-4-yl)-4,5,6,7-tetrahydropyrazolo[1,5-a]pyridin-4-yl)-1H-pyrazole-4-carboxamide]
> 6.60	COc1cc(C#N)cc(C(=O)N[C@H]2CCCn3nc(-c4ccnc(C(F)(F)F)c4)cc32)c1 [Compound I-341a, (S)-3-Cyano-5-methoxy-N-(2-(2-(trifluoromethyl)pyridin-4-yl)-4,5,6,7-tetrahydropyrazolo[1,5-a]pyridin-4-yl)benzamide]
> 6.60	N#Cc1cccc(C(=O)N[C@H]2CCn3nc(-c4ccnc(C(F)(F)F)c4)cc32)c1 [Compound I-342a, (S)-3-Cyano-N-(2-(2-(trifluoromethyl)pyridin-4-yl)-5,6-dihydro-4H-pyrrolo[1,2-b]pyrazol-4-yl)benzamide]
> 6.60	N#Cc1cc(C(=O)N[C@H]2CCCn3nc(-c4ccnc(C(F)(F)F)c4)cc32)ccc1F [Compound I-343a, (S)-3-Cyano-4-fluoro-N-(2-(2-(trifluoromethyl)pyridin-4-yl)-4,5,6,7-tetrahydropyrazolo[1,5-a]pyridin-4-yl)benzamide]
> 6.60	Cn1nc(C2CC2)cc1C(=O)N[C@H]1CCCn2nc(-c3ccnc(C(F)(F)F)c3)cc21 [Compound I-347a]
> 6.60	Cn1nc(C(F)F)cc1C(=O)N[C@H]1CCCn2nc(-c3ccnc(C(F)(F)F)c3)cc21 [Compound I-348a]
> 6.60	N#Cc1ccc(C(=O)N[C@H]2CCCn3nc(-c4ccnc(C(F)(F)F)c4)cc32)cc1 [Compound I-349a]
> 6.60	CC(C)c1cc(C(=O)N[C@H]2CCCn3nc(-c4ccnc(C(F)(F)F)c4)cc32)n(C)n1 [Compound I-350a]
> 6.60	Cn1nc(-c2ccccc2)cc1C(=O)N[C@H]1CCCn2nc(-c3ccnc(C(F)(F)F)c3)cc21 [Compound I-351a]
> 6.60	O=C(N[C@H]1CCCn2nc(-c3ccnc(C(F)(F)F)c3)cc21)c1cc(Cl)cc(C(F)(F)F)c1 [Compound I-352a]
> 6.60	COc1cc(-c2cc3n(n2)CCC[C@@H]3NC(=O)c2cc(Cl)cc(C(F)(F)F)c2)ccn1 [Compound I-354a]
> 6.60	COc1cc(-c2cc3n(n2)CCC[C@@H]3NC(=O)c2cncc(C(F)(F)F)c2)ccn1 [Compound I-357a]
> 6.60	Cc1nc(C(F)(F)F)sc1C(=O)N[C@H]1CCCn2nc(-c3ccnc(C(F)(F)F)c3)cc21 [Compound I-358a]
> 6.60	Cc1c(-n2cc3c(n2)CCC[C@@H]3NC(=O)c2cc(C(F)(F)F)nn2C)ccnc1C(F)(F)F [Compound I-359a]
> 6.60	CCOc1cc(-n2cc3c(n2)CCCC[C@@H]3NC(=O)c2cc(C(F)(F)F)nn2C)ccn1 [Compound I-360a]
> 6.60	CCOc1cc(-n2cc3c(n2)CCCC[C@@H]3NC(=O)c2cccc(C)c2)ccn1 [Compound I-361a]
> 6.60	Cn1nc(C2CCC2)cc1C(=O)N[C@H]1CCCn2nc(-c3ccnc(C(F)(F)F)c3)cc21 [Compound I-362a]
> 6.60	Cn1nc(C(C)(F)F)cc1C(=O)N[C@H]1CCCn2nc(-c3ccnc(C(F)(F)F)c3)cc21 [Compound I-363a]
> 6.60	COc1cc(-c2cc3n(n2)CCC[C@@H]3NC(=O)c2ccnc(C(F)(F)F)c2)ccn1 [Compound I-364a]
> 6.60	COc1cc(-c2cc3n(n2)CCC[C@@H]3NC(=O)c2cc(C(F)(F)F)nn2C)ccn1 [Compound I-366a]
> 6.60	CC(C)Oc1cc(C(=O)N[C@H]2CCCn3nc(-c4ccnc(C(F)(F)F)c4)cc32)n(C)n1 [Compound I-367a]
